Source: PubChem BioAssay (NCI)
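Briefly, cells in 96-well plates were exposed to five compound concentrations for 48 h, and endpoints were estimated by linear interpolation. TGI is the concentration that stops growth completely.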

Assays:
Assay in all cases: NCI tumour cell line growth inhibition, 48 h
[1] = system: COLO 205 colon
[2] = system: ACHN renal
[3] = system: CAKI-1 renal
[4] = system: 786-0 renal
[5] = system: SN12C renal
[6] = system: U251 CNS
[7] = system: UACC-257 melanoma
[8] = system: OVCAR-4 ovarian
[9] = system: TK-10 renal
[10] = system: OVCAR-3 ovarian
[11] = system: MOLT-4 leukemia
[12] = system: HL-60(TB) leukemia
[13] = system: MDA-N
[14] = system: NCI-H522 lung
[15] = system: MCF7 breast
[16] = system: PC-3 prostate
[17] = system: UO-31 renal
[18] = system: SF-268 CNS
[19] = system: K-562 leukemia
[20] = system: HOP-62 NSCLC
[21] = system: A498 renal
[22] = system: OVCAR-5 ovarian
[23] = system: NCI-H23 lung
[24] = system: KM12 colon
[25] = system: SNB-75 CNS
[26] = system: MALME-3M melanoma
[27] = system: SK-MEL-2 melanoma
[28] = system: M14 melanoma
[29] = system: RPMI-8226 leukemia
[30] = system: MDA-MB-435
[31] = system: HS 578T breast
[32] = system: T-47D breast
[33] = system: NCI/ADR-RES ovarian
[34] = system: IGROV1 ovarian
[35] = system: OVCAR-8 ovarian
[36] = system: HCT-15 colon
[37] = system: EKVX NSCLC
[38] = system: SK-MEL-5 melanoma
[39] = system: NCI-H460 lung
[40] = system: UACC-62 melanoma
[41] = system: SK-MEL-28 melanoma
[42] = system: RXF 393 renal
[43] = system: NCI-H226 lung
[44] = system: SF-295 CNS
[45] = system: HT29 colon
[46] = system: SF-539 CNS
[47] = system: SW-620 colon
[48] = system: SK-OV-3 ovarian
[49] = system: HCT-116 colon
[50] = system: CCRF-CEM leukemia
[51] = system: BT-549 breast
[52] = system: LOX IMVI melanoma
[53] = system: SR leukemia
[54] = system: MDA-MB-231 breast
[55] = system: SNB-19 CNS
[56] = system: DU-145 prostate
[57] = system: HOP-92 NSCLC
[58] = system: A549 NSCLC
[59] = system: HCC-2998 colon

COc1cc2c(cc1OC)C(CCN)=NCC2
TGI [1]: 27.4 µM | TGI [2]: 31.7 µM | TGI [3]: 25.2 µM | TGI [4]: 18.4 µM | TGI [5]: 35.1 µM | TGI [6]: 30.8 µM | TGI [7]: 32.9 µM | TGI [8]: 47.4 µM | TGI [9]: 22.8 µM | TGI [10]: 35.2 µM | TGI [11]: 43 µM | TGI [12]: 2.06 µM | TGI [13]: 30.5 µM | TGI [14]: 10.3 µM | TGI [15]: 40.2 µM | TGI [16]: 29.6 µM | TGI [17]: 4.2 µM | TGI [18]: 36.3 µM | TGI [19]: 43.3 µM | TGI [20]: > 57.4 µM | TGI [21]: 62.8 µM | TGI [22]: > 57.8 µM | TGI [23]: 34.3 µM | TGI [24]: 40.2 µM | TGI [25]: 33 µM | TGI [26]: 33.1 µM | TGI [27]: 31.9 µM | TGI [28]: 32.8 µM | TGI [29]: 29.9 µM | TGI [30]: 31.4 µM | TGI [31]: 59.9 µM | TGI [32]: 31.1 µM | TGI [33]: > 69 µM | TGI [34]: 52 µM | TGI [35]: 33.1 µM | TGI [36]: 38.9 µM | TGI [37]: 59 µM | TGI [38]: 35.6 µM | TGI [39]: > 100 µM | TGI [40]: 34.4 µM | TGI [41]: 33.2 µM | TGI [42]: 30.4 µM | TGI [43]: > 64.4 µM | TGI [44]: > 100 µM | TGI [45]: 41.3 µM | TGI [46]: 16.6 µM | TGI [47]: 17.1 µM | TGI [48]: > 100 µM | TGI [49]: 33.7 µM | TGI [50]: 5.12 µM | TGI [51]: 33.6 µM | TGI [52]: 36.7 µM | TGI [53]: 23.8 µM | TGI [54]: 30.8 µM | TGI [55]: > 100 µM | TGI [56]: 32.9 µM | TGI [57]: 15.1 µM | TGI [58]: > 100 µM

N=C1OC(CN2CCN(c3ccccc3)CC2)CN1C(=O)Nc1ccccc1 (centres undefined)
TGI [1]: > 100 µM | TGI [2]: > 100 µM | TGI [3]: > 100 µM | TGI [4]: > 100 µM | TGI [5]: > 100 µM | TGI [6]: > 100 µM | TGI [7]: > 100 µM | TGI [8]: > 100 µM | TGI [9]: > 100 µM | TGI [11]: > 100 µM | TGI [12]: > 100 µM | TGI [13]: > 100 µM | TGI [14]: > 100 µM | TGI [15]: > 100 µM | TGI [16]: > 100 µM | TGI [17]: > 100 µM | TGI [18]: > 100 µM | TGI [19]: > 100 µM | TGI [20]: > 100 µM | TGI [21]: > 100 µM | TGI [22]: > 100 µM | TGI [23]: > 100 µM | TGI [24]: > 100 µM | TGI [26]: > 100 µM | TGI [27]: > 100 µM | TGI [28]: > 100 µM | TGI [59]: > 100 µM | TGI [29]: > 100 µM | TGI [30]: > 100 µM | TGI [31]: > 100 µM | TGI [32]: > 100 µM | TGI [33]: > 100 µM | TGI [34]: > 100 µM | TGI [35]: > 100 µM | TGI [36]: > 100 µM | TGI [37]: > 100 µM | TGI [38]: > 100 µM | TGI [39]: > 100 µM | TGI [40]: > 100 µM | TGI [41]: > 100 µM | TGI [42]: > 100 µM | TGI [43]: > 100 µM | TGI [44]: > 100 µM | TGI [45]: > 100 µM | TGI [47]: > 100 µM | TGI [48]: > 100 µM | TGI [49]: > 100 µM | TGI [50]: > 100 µM | TGI [51]: > 100 µM | TGI [52]: > 100 µM | TGI [53]: > 100 µM | TGI [54]: > 100 µM | TGI [55]: > 100 µM | TGI [56]: > 100 µM | TGI [57]: > 100 µM | TGI [58]: > 100 µM

O=CNC(Cc1cnc[nH]1)C(=O)O (centres undefined)
TGI [1]: > 100 µM | TGI [2]: > 100 µM | TGI [3]: > 100 µM | TGI [4]: > 100 µM | TGI [5]: > 100 µM | TGI [6]: > 100 µM | TGI [7]: > 100 µM | TGI [8]: > 100 µM | TGI [9]: > 100 µM | TGI [10]: > 100 µM | TGI [12]: > 100 µM | TGI [13]: > 100 µM | TGI [14]: > 100 µM | TGI [15]: > 100 µM | TGI [16]: > 100 µM | TGI [17]: > 100 µM | TGI [18]: > 100 µM | TGI [19]: > 100 µM | TGI [20]: > 100 µM | TGI [21]: > 100 µM | TGI [22]: > 100 µM | TGI [23]: > 100 µM | TGI [24]: > 100 µM | TGI [25]: > 100 µM | TGI [26]: > 100 µM | TGI [27]: > 100 µM | TGI [28]: > 100 µM | TGI [29]: > 100 µM | TGI [30]: > 100 µM | TGI [31]: > 100 µM | TGI [32]: > 100 µM | TGI [33]: > 100 µM | TGI [34]: > 100 µM | TGI [35]: > 100 µM | TGI [36]: > 100 µM | TGI [37]: > 100 µM | TGI [38]: > 100 µM | TGI [39]: > 100 µM | TGI [40]: > 100 µM | TGI [41]: > 100 µM | TGI [42]: > 100 µM | TGI [43]: > 100 µM | TGI [44]: > 100 µM | TGI [45]: > 100 µM | TGI [46]: > 100 µM | TGI [47]: > 100 µM | TGI [48]: > 100 µM | TGI [49]: > 100 µM | TGI [50]: > 100 µM | TGI [51]: > 100 µM | TGI [52]: > 100 µM | TGI [53]: > 100 µM | TGI [54]: > 100 µM | TGI [55]: > 100 µM | TGI [56]: > 100 µM | TGI [57]: > 100 µM | TGI [58]: > 100 µM

CCCC(=O)OCC1OC(n2cc(F)c(=O)[nH]c2=O)CC1OC(=O)CCC (centres undefined)
TGI [1]: > 10 µM | TGI [2]: > 10 µM | TGI [3]: > 7.85 µM | TGI [4]: > 10 µM | TGI [5]: > 10 µM | TGI [6]: > 10 µM | TGI [7]: > 10 µM | TGI [8]: > 10 µM | TGI [9]: > 10 µM | TGI [10]: > 10 µM | TGI [11]: > 10 µM | TGI [12]: > 10 µM | TGI [13]: > 10 µM | TGI [14]: > 10 µM | TGI [15]: > 10 µM | TGI [16]: > 10 µM | TGI [17]: > 10 µM | TGI [18]: > 10 µM | TGI [19]: > 10 µM | TGI [20]: > 10 µM | TGI [21]: > 9.23 µM | TGI [22]: > 10 µM | TGI [23]: 5.02 µM | TGI [24]: > 10 µM | TGI [26]: > 10 µM | TGI [27]: > 10 µM | TGI [28]: > 10 µM | TGI [59]: > 10 µM | TGI [29]: > 10 µM | TGI [30]: > 10 µM | TGI [31]: > 10 µM | TGI [32]: > 10 µM | TGI [33]: > 10 µM | TGI [34]: > 10 µM | TGI [35]: > 10 µM | TGI [36]: > 10 µM | TGI [37]: > 10 µM | TGI [38]: 2.39 µM | TGI [39]: > 10 µM | TGI [40]: > 10 µM | TGI [41]: > 10 µM | TGI [42]: > 10 µM | TGI [43]: > 10 µM | TGI [44]: > 10 µM | TGI [45]: > 10 µM | TGI [46]: 0.281 µM | TGI [47]: > 10 µM | TGI [48]: > 10 µM | TGI [49]: > 10 µM | TGI [50]: > 10 µM | TGI [51]: > 10 µM | TGI [52]: > 10 µM | TGI [53]: > 10 µM | TGI [54]: > 10 µM | TGI [55]: > 10 µM | TGI [56]: > 2.62 µM | TGI [57]: > 10 µM | TGI [58]: > 10 µM
